Results as given in article PMC10381486, “Hydantoanabaenopeptins from Lake Kinneret Microcystis Bloom, Isolation, and Structure Elucidation of the Possible Intermediates in the Anabaenopeptins Biosynthesis” (Marine Drugs, 2023).

How the values were obtained:
[1] = target: T1, trypsin (Bos taurus, UniProt P00760); assay: Trypsin inhibition assay (BAPNA substrate, 96-well plate); format: biochemical; conditions: Tris buffer pH 7.5, 5 min pre-incubation at 37 °C, kinetic absorbance at 405 nm over 30 min
T1 construct: gene PRSS1
T1 sequence (P00760 24-246): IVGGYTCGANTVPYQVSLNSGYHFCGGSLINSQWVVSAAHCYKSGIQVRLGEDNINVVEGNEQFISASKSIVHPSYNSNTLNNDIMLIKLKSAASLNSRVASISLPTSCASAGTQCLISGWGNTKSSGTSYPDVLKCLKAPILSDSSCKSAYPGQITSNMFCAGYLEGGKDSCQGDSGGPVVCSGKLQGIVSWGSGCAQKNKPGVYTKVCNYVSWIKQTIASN
Description: The samples for biological assays were dissolved in DMSO at a concentration of 1 mg/mL and were tested for inhibition of the proteases at a single concentration: 1 […]. Assays were performed in a 96-well plate format.
The assay was performed in a Tris buffer (0.6 g Tris HCl in 100 mL H2O, pH 7.5). Benzoyl-L-arginine-p-nitroanilide hydrochloride (BAPNA), the trypsin substrate, was dissolved at 1 mg/mL in 1:9 DMSO/buffer. The enzyme was dissolved in buffer at 1 mg/mL. To each well were added 100 μL of buffer, 10 μL of enzyme, and 10 μL of sample. The plate was placed in the spectrophotometer at 37 °C. After 5 min, 100 μL of substrate solution was added to each well, and the plate was placed in the spectrophotometer for the kinetic measurement of the absorbance intensity over 30 min at a wavelength of 405 nm.

[2] = target: chymotrypsin (Bos taurus, UniProt P00766); assay: Chymotrypsin inhibition assay (SGGPNA substrate, 96-well plate); format: biochemical; conditions: Tris buffer pH 7.5, 5 min pre-incubation at 37 °C, kinetic absorbance at 405 nm over 30 min
Description: […] Assays were performed in a 96-well plate format.
The assay was performed in a Tris buffer (0.6 gr TRIS HCl/100 mL H2O, pH 7.5). The enzyme and the substrate Suc-Gly-Gly-phenylalanine-p-nitroanilide (SGGPNA) were dissolved in the buffer at a concentration of 1 mg/mL. To each well were added 100 μL of buffer, 10 μL of enzyme, and 10 μL of sample. Then, the plate was placed in the spectrophotometer for a 5 min incubation at 37 °C. Thereafter, to each well, 100 μL of substrate solution was added, and the plate was placed in the spectrophotometer for the kinetic measurement of the absorbance intensity over 30 min at a wavelength of 405 nm.

Substance: Phe, NMeAla, Hty, Ile, Lys, and Arg (lariat or depsi) [Compound 3, Hydantoanabaenopeptin F, hydantoin derivative of anabaenopeptin F isolated from Lake Kinneret Microcystis bloom]
- inhibition of the serine protease trypsin ([1]; single concentration 54.6 μM): nonactive

Substance: Dht-CO-cyclo-[Lys-Val-Hty-NMeAla-Phe] (lariat or depsi) [Compound 5, ^1[Dht]-anabaenopeptin A, new anabaenopeptin with dihomotyrosine at position 1]
- inhibition of the serine protease chymotrypsin ([2]; single concentration 53.3 μM): nonactive

Substance: cyclo-(Phe-NMeAla-Hty-Val-Lys-ε-NH)- (lariat or depsi) [Compound 1, Hydantoanabaenopeptin A, hydantoin derivative of anabaenopeptin A isolated from Lake Kinneret Microcystis bloom]
- inhibition of the serine protease chymotrypsin ([2]; single concentration 55.1 μM): nonactive

Substance: hydanto-Dht-[Lys-Val-Hty-NMeAla-Phe] (lariat or depsi) [Compound 6, ^1[Dht]-hydantoanabaenopeptin A, hydantoin derivative of 1[Dht]-anabaenopeptin A]
- inhibition of the serine protease chymotrypsin ([2]; single concentration 53.3 μM): nonactive

Substance: Hydantoanabaenopeptin B [Compound 2]
- inhibition of the serine protease trypsin ([1]; single concentration 55.6 μM): nonactive

Substance: Hydanto-oscillamide Y [Compound 4]
- inhibition of the serine protease chymotrypsin ([2]; single concentration 54.2 μM): nonactive
